Columns and labels:
Type in all cases: in vivo
Puccinia recondita = assay: Test B: wheat leaf rust, preventive spray on wheat seedlings; settings: wheat leaf rust; 100 = 100% disease control, 0 = no control; unmarked entries (standard test concentration)
In short: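 Preventive test: P. recondita spores were applied one day after a run-off spray of compound suspension on wheat seedlings. Plants had 24 h at 20 °C in saturated air plus 6 days in a 20 °C growth chamber. Scoring is % disease control (100 = full) relative to controls.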

Phytophthora infestans = settings: tomato late blight; 100 = 100% disease control, 0 = no control; unmarked entries (standard test concentration)
Pyricularia oryzae = settings: rice blast; 100 = 100% disease control, 0 = no control; unmarked entries (standard test concentration)
Botrytis cinerea = assay: Test E: gray mold, preventive spray on cucumber seedlings; settings: gray mold on cucumber; 100 = 100% disease control, 0 = no control; unmarked entries (standard test concentration)
In short: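 Preventive spray on cucumber seedlings used a suspension (3% acetone, 250 ppm Trem 014), applied to run-off one day before inoculation with Botrytis cinerea spores. Plants were held 48 h at 20° C in saturated air, then 5 days at 20° C. Percent disease control was scored relative to untreated plants.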

[1] = test system: Eiysiphe graminis f. sp. tritici; assay: Test A: wheat powdery mildew, preventive spray on wheat seedlings; settings: wheat powdery mildew; 100 = 100% disease control, 0 = no control relative to controls; unmarked entries (standard test concentration)
In short: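 Preventive test: seedlings inoculated with powdery mildew spores one day after run-off spraying of a suspension. Ratings after 7 days in a 20° C growth chamber express percent disease control versus controls.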

In the case of `Cc1ccc(Cl)c(OC[C@@H](C)NC(=O)C(C#N)C(C)(C)C)c1` (single isomer, unassigned) [15a], the “Test B disease control rating” value (Puccinia recondita) is reported as 28%, the “Test D disease control rating” value (Phytophthora infestans) is reported as 92% and the “Test C disease control rating” value (Pyricularia oryzae) is reported as 97%. The “Test E disease control rating” value (Botrytis cinerea) was 86% and the “Test A disease control rating” value [1] was 0%.

`Cc1ccc(Cl)c(OC[C@@H](C)NC(=O)C(C#N)C(C)(C)C)c1` (single isomer, unassigned) [15b] was tested, and the “Test B disease control rating” value (Puccinia recondita) was 0%, the “Test D disease control rating” value (Phytophthora infestans) was 45% and the “Test C disease control rating” value (Pyricularia oryzae) was 97%. For the same molecule, the “Test E disease control rating” value (Botrytis cinerea) was 0% and the “Test A disease control rating” value [1] was 0%.

`C[C@H](COc1cccc(C(F)(F)F)c1)NC(=O)C(C#N)C(C)(C)C` (single isomer, unassigned) [18a] was tested, and the “Test B disease control rating” value (Puccinia recondita) was 0%, the “Test D disease control rating” value (Phytophthora infestans) was 0% and the “Test C disease control rating” value (Pyricularia oryzae) was 91%. For the same molecule, the “Test E disease control rating” value (Botrytis cinerea) was 0% and the “Test A disease control rating” value [1] was 0%.

`C[C@H](COc1cccc(C(F)(F)F)c1)NC(=O)C(C#N)C(C)(C)C` (single isomer, unassigned) [18b] was tested, and the “Test B disease control rating” value (Puccinia recondita) was 0%, the “Test D disease control rating” value (Phytophthora infestans) was 0% and the “Test C disease control rating” value (Pyricularia oryzae) was 94%. For the same molecule, the “Test E disease control rating” value (Botrytis cinerea) was 0% and the “Test A disease control rating” value [1] was 77%.

`C[C@H](COc1cccc(F)c1F)NC(=O)C(C#N)C(C)(C)C` (single isomer, unassigned) [26a] was tested, and the “Test B disease control rating” value (Puccinia recondita) was 28%, the “Test D disease control rating” value (Phytophthora infestans) was 51% and the “Test C disease control rating” value (Pyricularia oryzae) was 97%. The “Test E disease control rating” value (Botrytis cinerea) was 0% and the “Test A disease control rating” value [1] was 38%.

For `C[C@H](COc1cccc(F)c1F)NC(=O)C(C#N)C(C)(C)C` (single isomer, unassigned) [26b], the “Test B disease control rating” value (Puccinia recondita) was 68%, the “Test D disease control rating” value (Phytophthora infestans) was 81% and the “Test C disease control rating” value (Pyricularia oryzae) was 100%. For the same molecule, the “Test E disease control rating” value (Botrytis cinerea) was 0% and the “Test A disease control rating” value [1] was 38%.

In the case of `C[C@H](COc1ccc(F)cc1F)NC(=O)C(C#N)C(C)(C)C` (single isomer, unassigned) [27a], the “Test B disease control rating” value (Puccinia recondita) is reported as 0%, the “Test D disease control rating” value (Phytophthora infestans) is reported as 81% and the “Test C disease control rating” value (Pyricularia oryzae) is reported as 100%. The “Test E disease control rating” value (Botrytis cinerea) was 0% and the “Test A disease control rating” value [1] was 38%.

In the case of `C[C@H](COc1ccc(F)cc1F)NC(=O)C(C#N)C(C)(C)C` (single isomer, unassigned) [27b], the “Test B disease control rating” value (Puccinia recondita) is reported as 0%, the “Test D disease control rating” value (Phytophthora infestans) is reported as 0% and the “Test C disease control rating” value (Pyricularia oryzae) is reported as 100%. For the same molecule, the “Test E disease control rating” value (Botrytis cinerea) was 0% and the “Test A disease control rating” value [1] was 91%.

For `C[C@H](COc1cc(F)ccc1F)NC(=O)C(C#N)C(C)(C)C` (single isomer, unassigned) [28a], the “Test B disease control rating” value (Puccinia recondita) was 28%, the “Test D disease control rating” value (Phytophthora infestans) was 68% and the “Test C disease control rating” value (Pyricularia oryzae) was 100%. For the same molecule, the “Test E disease control rating” value (Botrytis cinerea) was 0% and the “Test A disease control rating” value [1] was 38%.

`C[C@H](COc1cc(F)ccc1F)NC(=O)C(C#N)C(C)(C)C` (single isomer, unassigned) [28b] was tested, and the “Test B disease control rating” value (Puccinia recondita) was 28%, the “Test D disease control rating” value (Phytophthora infestans) was 96% and the “Test C disease control rating” value (Pyricularia oryzae) was 100%. The “Test E disease control rating” value (Botrytis cinerea) was 0% and the “Test A disease control rating” value [1] was 86%.

With `C[C@H](COc1ccc(F)c(F)c1)NC(=O)C(C#N)C(C)(C)C` (single isomer, unassigned) [30a] the “Test B disease control rating” value (Puccinia recondita) was 0%, the “Test D disease control rating” value (Phytophthora infestans) was 0% and the “Test C disease control rating” value (Pyricularia oryzae) was 100%. The “Test E disease control rating” value (Botrytis cinerea) was 0% and the “Test A disease control rating” value [1] was 0%.

With `C[C@H](COc1ccc(F)c(F)c1)NC(=O)C(C#N)C(C)(C)C` (single isomer, unassigned) [30b] the “Test B disease control rating” value (Puccinia recondita) was 27%, the “Test D disease control rating” value (Phytophthora infestans) was 0% and the “Test C disease control rating” value (Pyricularia oryzae) was 97%. The “Test E disease control rating” value (Botrytis cinerea) was 0% and the “Test A disease control rating” value [1] was 77%.

In the case of `C[C@H](COc1cccc(Cl)c1Cl)NC(=O)C(C#N)C(C)(C)C` (single isomer, unassigned) [31a], the “Test B disease control rating” value (Puccinia recondita) is reported as 68%, the “Test D disease control rating” value (Phytophthora infestans) is reported as 51% and the “Test C disease control rating” value (Pyricularia oryzae) is reported as 74%. The “Test E disease control rating” value (Botrytis cinerea) was 0% and the “Test A disease control rating” value [1] was 62%.

With `C[C@H](COc1cccc(Cl)c1Cl)NC(=O)C(C#N)C(C)(C)C` (single isomer, unassigned) [31b] the “Test B disease control rating” value (Puccinia recondita) was 0%, the “Test D disease control rating” value (Phytophthora infestans) was 0% and the “Test C disease control rating” value (Pyricularia oryzae) was 94%. For the same molecule, the “Test E disease control rating” value (Botrytis cinerea) was 0% and the “Test A disease control rating” value [1] was 0%.

`C[C@H](COc1ccc(Cl)cc1Cl)NC(=O)C(C#N)C(C)(C)C` (single isomer, unassigned) [32a] was tested, and the “Test B disease control rating” value (Puccinia recondita) was 27%, the “Test D disease control rating” value (Phytophthora infestans) was 0% and the “Test C disease control rating” value (Pyricularia oryzae) was 91%. For the same molecule, the “Test E disease control rating” value (Botrytis cinerea) was 0% and the “Test A disease control rating” value [1] was 0%.

With `C[C@H](COc1ccc(Cl)cc1Cl)NC(=O)C(C#N)C(C)(C)C` (single isomer, unassigned) [32b] the “Test B disease control rating” value (Puccinia recondita) was 27%, the “Test D disease control rating” value (Phytophthora infestans) was 23% and the “Test C disease control rating” value (Pyricularia oryzae) was 94%. The “Test E disease control rating” value (Botrytis cinerea) was 0% and the “Test A disease control rating” value [1] was 0%.

For `C[C@H](COc1cc(Cl)ccc1Cl)NC(=O)C(C#N)C(C)(C)C` (single isomer, unassigned) [33a], the “Test B disease control rating” value (Puccinia recondita) was 0%, the “Test D disease control rating” value (Phytophthora infestans) was 0% and the “Test C disease control rating” value (Pyricularia oryzae) was 97%. The “Test E disease control rating” value (Botrytis cinerea) was 0% and the “Test A disease control rating” value [1] was 0%.

With `C[C@H](COc1cc(Cl)ccc1Cl)NC(=O)C(C#N)C(C)(C)C` (single isomer, unassigned) [33b] the “Test B disease control rating” value (Puccinia recondita) was 67%, the “Test D disease control rating” value (Phytophthora infestans) was 80% and the “Test C disease control rating” value (Pyricularia oryzae) was 100%. For the same molecule, the “Test E disease control rating” value (Botrytis cinerea) was 0% and the “Test A disease control rating” value [1] was 0%.

With `C[C@H](COc1cc(Cl)cc(Cl)c1)NC(=O)C(C#N)C(C)(C)C` (single isomer, unassigned) [35a] the “Test B disease control rating” value (Puccinia recondita) was 0%, the “Test D disease control rating” value (Phytophthora infestans) was 80% and the “Test C disease control rating” value (Pyricularia oryzae) was 74%. The “Test E disease control rating” value (Botrytis cinerea) was 0% and the “Test A disease control rating” value [1] was 0%.

For `C[C@H](COc1cc(Cl)cc(Cl)c1)NC(=O)C(C#N)C(C)(C)C` (single isomer, unassigned) [35b], the “Test B disease control rating” value (Puccinia recondita) was 0%, the “Test D disease control rating” value (Phytophthora infestans) was 0% and the “Test C disease control rating” value (Pyricularia oryzae) was 91%. For the same molecule, the “Test E disease control rating” value (Botrytis cinerea) was 0% and the “Test A disease control rating” value [1] was 37%.

With `C[C@H](COc1ccc(Cl)cc1F)NC(=O)C(C#N)C(C)(C)C` (single isomer, unassigned) [36a] the “Test B disease control rating” value (Puccinia recondita) was 27%, the “Test D disease control rating” value (Phytophthora infestans) was 89% and the “Test C disease control rating” value (Pyricularia oryzae) was 99%. For the same molecule, the “Test E disease control rating” value (Botrytis cinerea) was 0% and the “Test A disease control rating” value [1] was 0%.

In the case of `C[C@H](COc1ccc(Cl)cc1F)NC(=O)C(C#N)C(C)(C)C` (single isomer, unassigned) [36b], the “Test B disease control rating” value (Puccinia recondita) is reported as 27%, the “Test D disease control rating” value (Phytophthora infestans) is reported as 80% and the “Test C disease control rating” value (Pyricularia oryzae) is reported as 100%. For the same molecule, the “Test E disease control rating” value (Botrytis cinerea) was 0% and the “Test A disease control rating” value [1] was 62%.

`C[C@H](COc1ccc(F)cc1Cl)NC(=O)C(C#N)C(C)(C)C` (single isomer, unassigned) [37a] was tested, and the “Test B disease control rating” value (Puccinia recondita) was 68%, the “Test D disease control rating” value (Phytophthora infestans) was 68% and the “Test C disease control rating” value (Pyricularia oryzae) was 100%. The “Test E disease control rating” value (Botrytis cinerea) was 0% and the “Test A disease control rating” value [1] was 62%.

With `C[C@H](COc1ccc(F)cc1Cl)NC(=O)C(C#N)C(C)(C)C` (single isomer, unassigned) [37b] the “Test B disease control rating” value (Puccinia recondita) was 68%, the “Test D disease control rating” value (Phytophthora infestans) was 96% and the “Test C disease control rating” value (Pyricularia oryzae) was 99%. For the same molecule, the “Test E disease control rating” value (Botrytis cinerea) was 0% and the “Test A disease control rating” value [1] was 77%.

`C[C@H](COc1ccc(F)cc1Br)NC(=O)C(C#N)C(C)(C)C` (single isomer, unassigned) [165a] was tested, and the “Test B disease control rating” value (Puccinia recondita) was 0%, the “Test D disease control rating” value (Phytophthora infestans) was 23% and the “Test C disease control rating” value (Pyricularia oryzae) was 74%. For the same molecule, the “Test E disease control rating” value (Botrytis cinerea) was 86% and the “Test A disease control rating” value [1] was 86%.

`C[C@H](COc1ccc(F)cc1Br)NC(=O)C(C#N)C(C)(C)C` (single isomer, unassigned) [165b] was tested, and the “Test B disease control rating” value (Puccinia recondita) was 0%, the “Test D disease control rating” value (Phytophthora infestans) was 23% and the “Test C disease control rating” value (Pyricularia oryzae) was 94%. For the same molecule, the “Test E disease control rating” value (Botrytis cinerea) was 95% and the “Test A disease control rating” value [1] was 95%.

`C[C@H](COc1cc(F)ccc1Br)NC(=O)C(C#N)C(C)(C)C` (single isomer, unassigned) [166a] was tested, and the “Test B disease control rating” value (Puccinia recondita) was 0%, the “Test D disease control rating” value (Phytophthora infestans) was 76% and the “Test C disease control rating” value (Pyricularia oryzae) was 99%. For the same molecule, the “Test E disease control rating” value (Botrytis cinerea) was 58% and the “Test A disease control rating” value [1] was 0%.

`C[C@H](COc1cc(F)ccc1Br)NC(=O)C(C#N)C(C)(C)C` (single isomer, unassigned) [166b] was tested, and the “Test B disease control rating” value (Puccinia recondita) was 0%, the “Test D disease control rating” value (Phytophthora infestans) was 0% and the “Test C disease control rating” value (Pyricularia oryzae) was 99%. The “Test E disease control rating” value (Botrytis cinerea) was 0% and the “Test A disease control rating” value [1] was 0%.

`C[C@H](COc1cc(F)cc(F)c1F)NC(=O)C(C#N)C(C)(C)C` (single isomer, unassigned) [168a] was tested, and the “Test B disease control rating” value (Puccinia recondita) was 0%, the “Test D disease control rating” value (Phytophthora infestans) was 0% and the “Test C disease control rating” value (Pyricularia oryzae) was 74%. For the same molecule, the “Test E disease control rating” value (Botrytis cinerea) was 58% and the “Test A disease control rating” value [1] was 76%.

`C[C@H](COc1cc(F)cc(F)c1F)NC(=O)C(C#N)C(C)(C)C` (single isomer, unassigned) [168b] was tested, and the “Test B disease control rating” value (Puccinia recondita) was 0%, the “Test D disease control rating” value (Phytophthora infestans) was 45% and the “Test C disease control rating” value (Pyricularia oryzae) was 94%. The “Test E disease control rating” value (Botrytis cinerea) was 86% and the “Test A disease control rating” value [1] was 95%.

From patent US6642392B1 (priority 1997, dated 2003)
